Reference: article PMC9620421, “The antimicrobial peptide Magainin-2 interacts with BamA impairing folding of E. coli membrane proteins” (Frontiers in Chemistry, 2022)
Read-outs that look alike come from different tables or passages of the source.

Experiments:
BamA [1] = details: BamA identified as target; Gram-negative bacteria; ref Hart et al., 2019; Li et al., 2020; cited from earlier work
From the text: Among the putative Mag-2 interactors, we focused our attention on the Bam complex as the proteomic experiment led to the identification of all the protein components of this complex essential for bacterial surviving. In particular, BamA is the central component of the Bam complex while BamB, -C, -D and -E are four lipoproteins with a secondary role.

[2] = cited from earlier work
From the text: Biophysical studies led to hypothesize three models that can explain the membrane disruption by AMPs: barrel-stave, toroidal pore and carpet mechanisms ([Di Somma et al., 2020]). According to these mechanisms, antimicrobial peptides interact with bacterial outer membranes, perturbing their integrity and causing their disaggregation ([Huang, 2006]). Most of AMPs show pore formation after binding to the membrane surface. X-ray crystallization studies and spectroscopic analyses reported that Alamethicin, a channel-forming peptide, insert into the lipid bilayer to form a barrel-stave pore structur ...

BamA [3] = test system: BamA
BamAp5 = target: T1, BamAp5 (Escherichia coli, UniProt P0A940); experiment: Intrinsic fluorescence binding titration; design: species or system E. coli
T1 construct: 6xHis; made in house; host or cells: E. coli BL21
Experimental: Fluorescence experiments were performed on a Fluoromax-4 spectrofluorometer from Horiba Scientific, using 1 cm optical path-length quartz cell under controlled temperature conditions (Peltier control system at 20°C). Titrations were carried out in 20 mM Tris-HCl pH 8.4, 0.2% triton. The intrinsic fluorescence intensity of BamAP5 at a concentration of 3.7 × 10^−6 M was monitored at 280 nm (slit 4 nm) and the emission was monitored at 308 nm (slit 4 nm) without and in the presence of increasing concentrations of Mag-2 peptide (from 2 to 18.64 µM). All experiments were performed in duplicate. The change in the fluorescence intensity of the reaction set was fit into “one site-specific binding” equation of GraphPad Prism 5 (GraphPad Software).

OmpA [4] = experiment: LC-MRM/MS quantification of OmpA in E. coli after Mag-2 incubation; format: cell-based
From the text: Cone voltage was set to 35V.

[5] = test system: E. coli membrane proteins; experiment: Pull-down proteomics, number of putative interactors; format: binding; details: biotinylated Mag-2 on avidin-agarose, biotin elution, LC-MS/MS; absent in control
OmpA [6] = experiment: Western blot densitometry of OmpA in E. coli after Mag-2 incubation; format: cell-based; details: 75 µM Mag-2, 1 h
Experimental: The E. coli cells were grown in the presence and in the absence of 50 µM Mag-2 for 1h, 2h and 3 h. The level of the OmpA protein was identified by Western Blot using a specific antiOmpA antibody. The amount of OmpA was then evaluated by densitometric analysis of the corresponding western blotted band. […] The same experiment was also carried out using a higher concentration of Mag-2 (75 µM) for as fixed time (1 h).

bacterial membrane = details: ref Billah et al., 2022; cited from earlier work
From the text: Peptide binding is favoured by both hydrophobic interactions between non-polar amino acids and the hydrophobic nucleus of the membrane and electrostatic interactions between the positive charges of the peptides and the negative charges of lipids ([Bahar and Ren, 2013]). Although the mechanism of action is not yet fully understood at molecular level, it is known that Magain ...

OmpF = details: 50 µM Mag-2 for 1h, 2 h and 3h; triplicate LC-MS/MS; t-test p < 0.05; with increasing time of incubation
[7] = target: T2, 6XHis-tagged E. coli BamAp5 (β-barrel domain and fifth POTRA domain, residues 344-810) (E. coli, UniProt P0A940 344-810); experiment: other fluorescence titration; intrinsic fluorescence of 3.7 x 10^-6 M BamAp5 (excitation 280 nm, emission 308 nm) with Mag-2 from 2 to 18.64 µM; 20 mM Tris-HCl pH 8.4, 0.2% triton, 20°C; one site-specific binding fit; duplicate; details: both partners purified
T2 construct: Monomer by DLS; also called recombinant form of BamA

## COC(=O)c1c(NC(=O)c2ccc([N+](=O)[O-])o2)sc2c1CCN(C(C)C)C2 [IMB-H4]
BamA [1]
  inhibition of the assembly of OMPs: inhibits the assembly of OMPs in Gram-negative bacteria

## NC(N)=NC(=O)CC(Nc1nc(N=C(N)N)nc(NC2CCC(NC(=O)Cn3nnc(-c4ccc(F)cc4)n3)CC2)n1)C1CC1 (stereo not drawn) [MRL-494]
BamA [1]
  inhibition of the assembly of OMPs: inhibits the assembly of OMPs in Gram-negative bacteria

## Alamethicin
[2]; X-ray crystallization and spectroscopic analyses, ref Qian et al., 2008
  membrane pore formation: insert into the lipid bilayer to form a barrel-stave pore structure consisting of eight alamethicin helices

## Magainin-2 (GIGKFLHSAKKFGKAFVGEIMNS) [Mag-2]
BamA [3]; DLS, 532.5 nm, peptide concentration ten times that of the protein, protein without peptide 4.7 ± 0.1 nm, at least 10 independent measurements
  hydrodynamic radius of the protein in presence of peptide: 4.3 ± 0.1 nm
BamA [3]; samples without and with peptide (ten times higher concentration than protein)
  aggregation state by DLS: only the protein monomer is present in both samples
BamAp5; intrinsic fluorescence quenching, ex 280 nm, em 308 nm, BamAP5 3.7 × 10^−6 M, Mag-2 2 to 18.64 µM, 20 mM Tris-HCl pH 8.4, 0.2% triton, 20°C, duplicate, one site-specific binding fit, read-out: dissociation constant of the complex, Kd
  Kd: 3500 ± 100 nM
BamAp5; λexc 280 nm, BamAp5 3.7 × 10^−6 M, increasing Mag-2, 20°C
  change of BamAP5 intrinsic fluorescence: fluorescence decreased at increasing concentrations of the peptide
OmpA [4]; 50 µM Mag-2, 1 h, vs control
  amount of OmpA peptide 252-263 (DGSVVVLGYTDR) by MRM peak area: decrease of the OmpA peptide
OmpA [4]; 50 µM Mag-2 for 1h, 2 h and 3h, triplicate LC-MS/MS, t-test p < 0.05, with increasing time of incubation
  amount of OmpA by MRM: clear decrease
[5]
  number of putative protein interactors: 35
OmpA [6]
  change of OmpA level: rapid and drastic reduction of the OmpA level
Bacterial membrane
  mechanism of antimicrobial activity: toroidal mechanism
OmpF
  amount of OmpF by MRM: clear decrease

## Melittin
[2]; fluorescence studies with phospholipid vesicles, ref Lohner and Blondelle, 2005
  membrane pore formation: formation of pore coupled with the translocation of peptide across the lipid bilayer

B1: Magainin-2 (peptide, UniProt P11006 83-105, looked up)
peptide: GIGKFLHSAKKFGKAFVGEIMNS
notes: Magainin-2 (Mag-2), antimicrobial peptide of the African clawed frog Xenopus laevis; cut product of the magainins precursor; the docking text numbers it to Ser23; also called Mag-2; Maganin-2
[7]
  Kd: 3.5 ± 0.1 nM
